Data taken from patent US8211939B2, “Isosorbide nitrates” (Lacer, S.A., priority 2008, dated 2012).
Read-outs that look alike come from different tables or passages of the source.

Tested on: thrombus formation in the carotid artery (70% FeCl3 patch)
Test: Anti-thrombotic activity, FeCl3-induced carotid artery thrombosis
Assay type: in vivo, Male Wistar rats
Conditions: 90 μmol/kg p.o., % animals protected; for responders at 90 µmol/kg: Rattus norvegicus, po, read-out: Antithrombotic activity (% protection); for Antithrombotic activity (% protection): rat
Description: Anti-Thrombotic Activity Assessment Experimental Procedure Male Wistar rats weighing 250-300 g were used after an acclimatization period of five days, and animals were divided in groups of 8 animals each for the treatments. […] The vehicle used to dissolve the products consisted of 1% Cremophor EL 27963, 1% Tween 80 and 0.5% Methocel E-15 in distilled water. After a fasting period of 8 hours with free access to drinking water each product was given by gavage 1 hour before induction of thrombosis. Thrombus formation was induced using a patch embedded with 70% FeCl3 solution applied onto the carotid artery using the same procedure described by Feuerstein G Z et al and later modified by Kurz et al (Feuerstein G Z, et al Artherioscler. Thromb. Vasc. Biol. 1999, 19: 2554-2562, Kurz K D, et al Thromb. Res. 1990, 60:269-280). Anti-thrombotic efficacy was evaluated at different times after dosage. Rats were anesthetized with sodium pentobarbital and then placed on a dorsal position over a thermal blanket laid on a surgical board and heated at 37° C. The left carotid artery was dissected and an electromagnetic blood flow probe was placed on the artery to measure blood flow. After application of the thrombotic stimuli, blood flow was monitored for the following 30 minutes. The vessel was considered occluded by the thrombus when flow reached 0.0 ml/min. Data were analysed by contingency tables using the Graph Pad Prism Program. P values were calculated using Fisher's exact test, values of p<0.05 were considered statistically significant. Results were expressed as % animals protected.

Row | SMILES | responders at 90 µmol/kg (1 h, 1 h after dosage) [%] | responders at 90 µmol/kg (2 h, 2 h after dosage) [%] | responders at 90 µmol/kg (4 h, 4 h after dosage) [%] | Antithrombotic activity (% protection) (1 h after dosage) [%] | Antithrombotic activity (% protection) (4 h after dosage) [%]
1 | C=CCS[C@H]1CO[C@H]2[C@@H]1OC[C@H]2O[N+](=O)[O-] [Ej. 3, (3R,3aS,6S,6aS)-6-(allylthio)hexahydrofuro[3,2-b]furan-3-yl nitrate] | 67 | – | – | – | –
2 | CCOC(=O)C[S+]([O-])[C@H]1CO[C@H]2[C@@H]1OC[C@H]2O[N+](=O)[O-] (some centres unmarked) [Comp 5, reference compound] | 16 | 0 | 0 | – | –
3 | CCCCS[C@H]1CO[C@H]2[C@@H]1OC[C@H]2O[N+](=O)[O-] [Comp 10, (3R,3aS,6S,6aS)-6-(butylthio)hexahydrofuro[3,2-b]furan-3-yl nitrate, reference compound] | 40 | – | – | – | –
4 | O=[N+]([O-])O[C@@H]1CO[C@H]2[C@@H]1OC[C@@H]2SCc1ccccc1 [Comp 2, (3R,3aS,6S,6aS)-6-(benzylthio)hexahydrofuro[3,2-b]furan-3-yl nitrate, reference compound] | 33 | – | – | – | –
5 | CCCC[S+]([O-])[C@H]1CO[C@H]2[C@@H]1OC[C@H]2O[N+](=O)[O-] (stereo partly drawn) [Comp 11, (3R,3aS,6S,6aS)-6-((R,S)-butylsulfinyl)hexahydrofuro[3,2-b]furan-3-yl nitrate, reference compound] | 32 | – | – | – | –
6 | CC[S+]([O-])[C@@H]1CO[C@H]2[C@@H]1OC[C@H]2O[N+](=O)[O-] (single isomer, unassigned) [Ej. 13 isom 1] | – | – | 16 | 32 | –
7 | O=[N+]([O-])O[C@@H]1CO[C@H]2[C@@H]1OC[C@@H]2[S+]([O-])Cc1ccccc1 (stereo partly drawn) [Comp 4, (3R,3aS,6S,6aS)-6-((R,S)-benzylsulfinyl)hexahydrofuro[3,2-b]furan-3-yl nitrate, reference compound] | 20 | 0 | 0 | – | –
8 | CCOC(=O)CS[C@H]1CO[C@H]2[C@@H]1OC[C@H]2O[N+](=O)[O-] [Comp 3, Ethyl 2-((3S,3aS,6R,6aS)-6-(nitrooxy)hexahydrofuro[3,2-b]furan-3-ylthio)acetate, reference compound] | 32 | – | – | – | –
9 | O=[N+]([O-])O[C@@H]1CO[C@H]2[C@@H]1OC[C@@H]2S(=O)(=O)Cc1ccccc1 [Comp 8, (3R,3aS,6S,6aS)-6-(benzylsulfonyl)hexahydrofuro[3,2-b]furan-3-yl nitrate, reference compound] | 33 | – | – | – | –
10 | C=CC[S+]([O-])[C@H]1CO[C@H]2[C@@H]1OC[C@H]2O[N+](=O)[O-] (stereo partly drawn) [Ej. 6, (3R,3aS,6S,6aS)-6-((R,S)-allylsulfinyl)hexahydrofuro[3,2-b]furan-3-yl nitrate] | 67 | 34 | 17 | – | –
11 | C=CCS(=O)(=O)[C@H]1CO[C@H]2[C@@H]1OC[C@H]2O[N+](=O)[O-] [Ej. 9, (3R,3aS,6S,6aS)-6-(allylsulfonyl)hexahydrofuro[3,2-b]furan-3-yl nitrate] | 83 | 50 | 0 | – | –
12 | CCCCS(=O)(=O)[C@H]1CO[C@H]2[C@@H]1OC[C@H]2O[N+](=O)[O-] [Comp 12, (3R,3aS,6S,6aS)-6-(butylsulfonyl)hexahydrofuro[3,2-b]furan-3-yl nitrate, reference compound] | 40 | – | – | – | –
13 | CC[S+]([O-])[C@@H]1CO[C@H]2[C@@H]1OC[C@H]2O[N+](=O)[O-] (single isomer, unassigned) [Ej. 13 isom 2] | – | – | – | 83 | 16
